For test [1], the target named is T1, threonine dehydratase/deaminase (TD) (Arabidopsis thaliana, UniProt Q9ZSS6, R499C/R544H).
T1 construct: from tissue; host or cells: extracts of Arabidopsis thaliana GM11b (omr1/omr1) plants
The conditions noted are these: extracts from GM11b (omr1/omr1) plants compared with wild type plants; Mourad and King 1995; cited from earlier work.

Test [2] relates to E. coli prototroph host DH5α. Nature of the test: Growth of E. coli DH5α on minimal medium supplemented with L-O-methylthreonine (second complementation experiment). Format: cell-based. As for the experimental part:
In the second complementation experiment, the E. coli prototroph host DH5α was transformed with pTrc-td23 or pUCK-td23 and plated on minimal medium supplemented with varying concentrations of the toxic analog L-O-methylthreonine. Both of the constructs were able to confer upon DH5α resistance to 30 μM L-O-methylthreonine. […] Therefore omr1 provides a new environmentally friendly selectable marker for genetic transformation of bacteria.

In test [3] the test system is Arabidopsis thaliana Columbia wild type. Nature of the test: Germination and growth of seedlings in agar medium supplemented with L-O-methylthreonine. The note with it: 0.2 mM L-O-methylthreonine agar medium, T1 seed screen. Format: in vivo. An excerpt: Using the vacuum infiltration method of Bent et al. (1994), L-O-methylthreonine-sensitive Arabidopsis thaliana Columbia wild type were transformed with pCM35S-omr1. Ten pots, each with 3-4 plants, were transformed and T1 seeds were harvested from the To transformed plants of each pot separately. […] In a crowded plate, it is possible to identify the transformants by looking at the bottom of the plate, the transformants show root growth while the nontransformants will have none. After three weeks of growth in the 0.2 mM L-O-methylthreonine agar medium, each of the 5 positive transformants was transferred to soil, kept separately and allowed to self-fertilize to produce the T2 seed.

For test [4], the system named is T2 seedlings of omr1 transgenic Arabidopsis. Put plainly: T2 seedlings of omr1 transformants on L-O-methylthreonine agar medium. Format: in vivo, Arabidopsis thaliana. The note with it: 0.2 mM L-O-methylthreonine agar medium, 50 T2 seeds/transformant, each of 5 plates. As for the experimental part: The T2 seed was harvested from each of the 5 positive T1 transformants and 50 T2 seeds/transformant were planted in a separate petri plate containing 0.2 mM L-O-methylthreonine agar medium. […] This slightly truncated precursor mutant TD was able to translocate to the chloroplast and confer upon transgenic plants resistance to OMT.

Test [5] relates to Arabidopsis thaliana Columbia wild type. The conditions noted are these: agar medium; Mourad and King, 1995; cited from earlier work.
Another test has as its system manmalian cell cultures. The note with it: by inhibiting incorporation of Ile into proteins; Rabinovitz et al. 1955; cited from earlier work.

T1 sequence (Q9ZSS6 92-592 R499C/R544H): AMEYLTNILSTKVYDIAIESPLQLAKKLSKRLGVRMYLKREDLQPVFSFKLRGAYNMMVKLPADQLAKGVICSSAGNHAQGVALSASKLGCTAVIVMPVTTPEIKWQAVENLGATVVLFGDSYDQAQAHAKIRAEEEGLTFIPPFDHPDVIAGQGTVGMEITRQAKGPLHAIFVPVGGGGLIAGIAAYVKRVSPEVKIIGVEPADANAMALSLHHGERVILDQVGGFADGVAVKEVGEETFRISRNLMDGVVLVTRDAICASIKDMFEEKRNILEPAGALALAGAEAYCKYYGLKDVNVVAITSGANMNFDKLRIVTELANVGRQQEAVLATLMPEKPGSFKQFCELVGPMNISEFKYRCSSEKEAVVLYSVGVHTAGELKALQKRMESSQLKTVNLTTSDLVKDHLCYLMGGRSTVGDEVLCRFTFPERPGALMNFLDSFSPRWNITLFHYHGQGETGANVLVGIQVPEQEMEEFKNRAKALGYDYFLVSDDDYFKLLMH

For the compound `CC[C@H](C)[C@H](N)C(=O)O` [Ile, isoleucine], in test [1], the “resistance of TD activity to feedback inhibition by Ile, GM11b extracts versus wild type extracts” value is given as “about 50 fold”.
Consider `CO[C@H](C)[C@H](N)C(=O)O` [L-O-methylthreonine], for which the “L-O-methylthreonine concentration to which resistance was conferred” value in test [2] (DH5α transformed with pTrc-td23 or pUCK-td23 (omr1), minimal medium) is 30 µM. Also, the “growth of bacterial colonies on plates with L-O-methylthreonine” value in test [2] (untransformed DH5α, minimal medium supplemented with varying concentrations of L-O-methylthreonine) is listed as “No bacterial colonies grew”. Also, in test [3], the “appearance of nontransformed seedlings after emergence of the cotyledons” value is reported as “completely bleached”. Besides, in test [4], the “T2 seedlings resistant to L-O-methylthreonine” value is recorded as ≥ 75%. The “concentration known to completely inhibit the growth of wild type seedlings beyond the cotyledonous stage” value in test [5] is given as 0.2 mM. Moreover, in the test on manmalian cell cultures, the “effect on growth of mammalian cell cultures” value is “inhibits growth”.

These data come from patent publication US20040006784A1, “Methods and compositions for producing plants and microorganisms that express feedback insensitive threonine dehydratase/deaminase” (priority 1997, published 2004).
